From article PMC5564600 (Oncotarget, 2017) come the findings set out here.

What all share (assay): biochemical
Format in all cases: binding

Assay [1] deals with T1, panel of 442 kinases (Homo sapiens, UniProt O76039).
T1 construct: purchased Ambit Biosciences (scanMAXX KINOMEscan)
T1 sequence (O76039 1-960): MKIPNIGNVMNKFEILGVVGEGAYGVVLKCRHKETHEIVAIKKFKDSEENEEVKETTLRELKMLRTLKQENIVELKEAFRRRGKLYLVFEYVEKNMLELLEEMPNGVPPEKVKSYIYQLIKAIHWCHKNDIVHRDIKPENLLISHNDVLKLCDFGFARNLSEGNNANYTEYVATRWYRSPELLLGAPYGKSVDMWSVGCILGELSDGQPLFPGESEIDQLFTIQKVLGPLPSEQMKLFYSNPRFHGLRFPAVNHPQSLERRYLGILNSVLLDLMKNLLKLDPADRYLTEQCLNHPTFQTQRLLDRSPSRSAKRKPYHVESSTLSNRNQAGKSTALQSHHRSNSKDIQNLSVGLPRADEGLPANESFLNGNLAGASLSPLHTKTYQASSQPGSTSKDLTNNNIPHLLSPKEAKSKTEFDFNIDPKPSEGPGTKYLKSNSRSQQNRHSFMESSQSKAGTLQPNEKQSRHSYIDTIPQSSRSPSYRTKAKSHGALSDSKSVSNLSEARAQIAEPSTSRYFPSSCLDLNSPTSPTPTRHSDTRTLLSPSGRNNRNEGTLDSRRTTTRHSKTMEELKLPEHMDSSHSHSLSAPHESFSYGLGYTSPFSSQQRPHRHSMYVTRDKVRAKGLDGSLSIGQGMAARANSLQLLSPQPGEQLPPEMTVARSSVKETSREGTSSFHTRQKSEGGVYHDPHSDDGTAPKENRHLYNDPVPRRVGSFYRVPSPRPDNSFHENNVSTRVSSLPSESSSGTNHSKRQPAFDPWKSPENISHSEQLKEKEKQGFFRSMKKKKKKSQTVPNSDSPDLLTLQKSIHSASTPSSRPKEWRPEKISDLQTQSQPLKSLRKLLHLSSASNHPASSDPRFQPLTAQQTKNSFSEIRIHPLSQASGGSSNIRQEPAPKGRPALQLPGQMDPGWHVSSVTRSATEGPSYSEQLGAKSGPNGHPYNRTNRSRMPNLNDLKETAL
To be noted: CDKL5; for remaining activity at 1 µM: read-out: % of control at 1 µM.

Assay [2] deals with T2, panel of 442 kinases (Homo sapiens, UniProt Q86UX6).
T2 construct: purchased Ambit Biosciences (scanMAXX KINOMEscan)
T2 sequence (Q86UX6 whole entry): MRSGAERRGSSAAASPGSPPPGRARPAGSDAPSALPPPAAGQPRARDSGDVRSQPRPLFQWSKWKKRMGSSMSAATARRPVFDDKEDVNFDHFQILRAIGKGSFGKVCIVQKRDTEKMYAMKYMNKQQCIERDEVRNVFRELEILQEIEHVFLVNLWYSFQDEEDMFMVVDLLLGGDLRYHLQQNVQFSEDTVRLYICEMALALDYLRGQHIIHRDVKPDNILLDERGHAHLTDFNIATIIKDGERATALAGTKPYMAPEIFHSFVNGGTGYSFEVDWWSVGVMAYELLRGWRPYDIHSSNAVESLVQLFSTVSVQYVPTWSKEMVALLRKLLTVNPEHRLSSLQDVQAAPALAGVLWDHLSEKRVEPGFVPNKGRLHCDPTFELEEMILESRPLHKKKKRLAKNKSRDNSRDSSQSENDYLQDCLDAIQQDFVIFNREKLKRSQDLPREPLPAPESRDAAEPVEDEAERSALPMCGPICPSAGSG
The note with it: kinase YANK3; for remaining activity at 1 µM: read-out: YANK3 (% of control at 1 µM).

Assay [3] addresses T3, panel of 442 kinases (Homo sapiens, UniProt Q8IYT8).
T3 construct: purchased Ambit Biosciences (scanMAXX KINOMEscan)
T3 sequence (Q8IYT8 1-1036): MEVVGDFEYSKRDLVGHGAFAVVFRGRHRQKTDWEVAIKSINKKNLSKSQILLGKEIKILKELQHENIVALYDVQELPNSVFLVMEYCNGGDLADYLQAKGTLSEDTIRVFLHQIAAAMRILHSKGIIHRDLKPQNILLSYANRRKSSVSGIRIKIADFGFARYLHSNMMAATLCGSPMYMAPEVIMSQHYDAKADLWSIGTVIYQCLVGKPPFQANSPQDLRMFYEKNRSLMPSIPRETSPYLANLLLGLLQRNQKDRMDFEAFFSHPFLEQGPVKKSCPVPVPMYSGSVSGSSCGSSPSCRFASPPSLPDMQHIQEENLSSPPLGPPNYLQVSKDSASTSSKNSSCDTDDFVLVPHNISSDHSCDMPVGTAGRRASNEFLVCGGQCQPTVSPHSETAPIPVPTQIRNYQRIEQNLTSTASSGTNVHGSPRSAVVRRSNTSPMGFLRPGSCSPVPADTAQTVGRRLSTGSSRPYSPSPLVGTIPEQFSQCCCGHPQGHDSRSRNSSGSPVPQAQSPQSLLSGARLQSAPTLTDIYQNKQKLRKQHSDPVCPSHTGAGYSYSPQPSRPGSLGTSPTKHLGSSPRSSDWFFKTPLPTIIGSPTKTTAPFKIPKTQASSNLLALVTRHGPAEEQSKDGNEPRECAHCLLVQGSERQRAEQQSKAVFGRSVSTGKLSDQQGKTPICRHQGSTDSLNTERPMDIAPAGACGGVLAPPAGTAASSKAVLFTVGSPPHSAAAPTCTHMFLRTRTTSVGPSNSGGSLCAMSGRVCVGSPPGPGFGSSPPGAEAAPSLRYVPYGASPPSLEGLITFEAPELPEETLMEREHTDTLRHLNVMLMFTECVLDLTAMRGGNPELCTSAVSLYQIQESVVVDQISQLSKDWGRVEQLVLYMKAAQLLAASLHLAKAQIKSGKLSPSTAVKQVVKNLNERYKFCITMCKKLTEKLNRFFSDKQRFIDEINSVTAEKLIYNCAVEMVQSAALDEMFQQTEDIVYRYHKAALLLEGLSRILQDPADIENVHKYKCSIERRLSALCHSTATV
To be noted: kinase ULK2; for remaining activity at 1 µM: read-out: ULK2 (% of control at 1 µM).

`Nc1cc(C(F)(F)F)c(-c2cc(N3CCOCC3)nc(N3CCOCC3)n2)cn1` [Buparlisib]: the remaining activity at 1 µM on panel of 442 kinases [1] is 88%; at panel of 442 kinases [2], 94%; on panel of 442 kinases [3], 86%. For the same molecule, the remaining activity at 10 µM on panel of 442 kinases [1] (10 µM, read-out: % of control at 10 µM) came to 100%; at panel of 442 kinases [2] (10 µM, read-out: YANK3 (% of control at 10 µM)), 100%; on panel of 442 kinases [3] (10 µM, read-out: ULK2 (% of control at 10 µM)) it was 100%.

For the molecule `Cn1c(=O)n(-c2ccc(C(C)(C)C#N)cc2)c2c3cc(-c4cnc5ccccc5c4)ccc3ncc21` [Dactolisib, 2-methyl-2-[4-(3-methyl-2-oxo-8-quinolin-3-yl-2,3-dihydroimidazo[4,5-c]quinolin-1-yl)-phenyl] propionitrile], the remaining activity at 1 µM on panel of 442 kinases [1] is 100%; on panel of 442 kinases [2], 88%; on panel of 442 kinases [3], 93%.

Take `COc1ncc(-c2ccc3nccc(-c4ccnnc4)c3c2)cc1NS(=O)(=O)c1ccc(F)cc1F` [Omipalisib]: the remaining activity at 1 µM on panel of 442 kinases [1], at panel of 442 kinases [2] and at panel of 442 kinases [3] was 100% in each case.

Take `FC(F)c1nc2ccccc2n1-c1nc(N2CCOCC2)nc(N2CCOCC2)n1` [ZSTK474, 2-(difluoromethyl)-1-[4,6-di(4-morpholinyl)-1,3,5-triazin-2-yl]-1H-benzimidazole]: the figures for the remaining activity at 1 µM on panel of 442 kinases [1], on panel of 442 kinases [2] and on panel of 442 kinases [3] were 100%, 73% and 100%, respectively.
